Assay results taken from patent publication US20070098788A1, “NON-BENZ[…] COMPOSITIONS” (priority 2005, published 2007).

How the values were obtained:
[1] = Particle size distribution by laser light scattering (Malvern); format: physicochemical; details: zaleplon used in Example 15 capsules; method not stated
[2] = cited from earlier work

Row | SMILES | D90 [1] | elimination half-life ([2]; in vivo) | onset of action ([2]; usually)
1 | CCN(C(C)=O)c1cccc(-c2ccnc3c(C#N)cnn23)c1 [Zaleplon, N-[3-(3-cyanopyrazolo[1,5-α]pyrimidin-7-yl)phenyl]-N-ethylacetamide] | 195 μm |  | 
2 | Cc1ccc(-c2nc3ccc(C)cn3c2CC(=O)N(C)C)cc1 [Zolpidem, N,N, 6-trimethyl-2-p-tolyl-imidazo[1,2-a]pyridine-3-acetamide] |  | 2 to 3 h | ≤ 15 min
